Source: patent EP0371730A1, “Dopamine-B-Hydroxylase inhibitors” (SMITHKLINE BEECHAM CORPORATION, priority 1988, dated 1990)

How the values were obtained:
[1] = tested on: spontaneously hypertensive rats; experiment: mean arterial blood pressure in spontaneously hypertensive rats; type: in vivo; settings: 50 mg/kg intraperitoneally, compared to vehicle-treated controls
Experimental: Further, spontaneously hypertensive rats were treated with 1-(2-imidazolylmethyl)-1,3-dihydro-2H-imidazole-2-thione at a dose of 50 mg/kg intraperitoneally, and mean arterial blood pressure was monitored for 250 minutes using indwelling cannulae in the tail arteries. […] The maximal blood pressure reduction was approximately 40 mmHg.

[2] = see Teresawa et al.; cited from earlier work
DBH = target: T1, DBH (Homo sapiens, UniProt P09172); settings: as reported by Runti et al.; cited from earlier work
T1 sequence (P09172 1-617): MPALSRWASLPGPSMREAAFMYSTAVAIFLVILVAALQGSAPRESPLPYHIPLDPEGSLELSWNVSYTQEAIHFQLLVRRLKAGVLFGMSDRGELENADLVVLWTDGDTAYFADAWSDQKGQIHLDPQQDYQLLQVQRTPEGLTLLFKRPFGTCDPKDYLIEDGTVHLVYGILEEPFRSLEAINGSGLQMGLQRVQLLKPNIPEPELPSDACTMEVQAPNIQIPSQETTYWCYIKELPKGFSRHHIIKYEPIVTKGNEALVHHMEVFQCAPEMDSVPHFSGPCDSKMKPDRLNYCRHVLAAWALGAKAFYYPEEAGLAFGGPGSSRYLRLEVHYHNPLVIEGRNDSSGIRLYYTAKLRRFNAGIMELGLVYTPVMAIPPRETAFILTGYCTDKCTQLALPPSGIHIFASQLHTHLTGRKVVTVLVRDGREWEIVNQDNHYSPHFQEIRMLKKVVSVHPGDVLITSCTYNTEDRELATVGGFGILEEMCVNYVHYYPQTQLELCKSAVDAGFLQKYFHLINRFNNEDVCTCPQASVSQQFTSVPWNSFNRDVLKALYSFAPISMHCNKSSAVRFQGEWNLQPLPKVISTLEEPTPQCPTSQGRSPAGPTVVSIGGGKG

## S=c1[nH]ccn1Cc1ncc[nH]1 [1-(2-Imidazolylmethyl)-1,3-dihydro-2H-imidazole-2-thione]
[1]
  time to significant blood pressure reductions following treatment: ≤ 30 min
[1]; mean arterial blood pressure monitored for 250 minutes
  maximal blood pressure reduction: approximately 40 mmHg

## CCCCc1ccc(C(=O)O)nc1 [Fusaric acid]
[2]
  hepatotoxicity: hepatotoxic

## phenylpicolinic acid
DBH
  inhibitory activity relative to fusaric acid: twice the inhibitory activity of fusaric acid
